Data set [1] addresses T1, ACE (Oryctolagus cuniculus, UniProt P12822).
T1 construct: the angiotensin-I-converting enzyme from rabbit lung (2 units/mg protein); purchased Sigma Chemical Co. (St. Louis, MO, USA); host or cells: rabbit lung (tissue-derived)
T1 sequence (P12822 34-1310): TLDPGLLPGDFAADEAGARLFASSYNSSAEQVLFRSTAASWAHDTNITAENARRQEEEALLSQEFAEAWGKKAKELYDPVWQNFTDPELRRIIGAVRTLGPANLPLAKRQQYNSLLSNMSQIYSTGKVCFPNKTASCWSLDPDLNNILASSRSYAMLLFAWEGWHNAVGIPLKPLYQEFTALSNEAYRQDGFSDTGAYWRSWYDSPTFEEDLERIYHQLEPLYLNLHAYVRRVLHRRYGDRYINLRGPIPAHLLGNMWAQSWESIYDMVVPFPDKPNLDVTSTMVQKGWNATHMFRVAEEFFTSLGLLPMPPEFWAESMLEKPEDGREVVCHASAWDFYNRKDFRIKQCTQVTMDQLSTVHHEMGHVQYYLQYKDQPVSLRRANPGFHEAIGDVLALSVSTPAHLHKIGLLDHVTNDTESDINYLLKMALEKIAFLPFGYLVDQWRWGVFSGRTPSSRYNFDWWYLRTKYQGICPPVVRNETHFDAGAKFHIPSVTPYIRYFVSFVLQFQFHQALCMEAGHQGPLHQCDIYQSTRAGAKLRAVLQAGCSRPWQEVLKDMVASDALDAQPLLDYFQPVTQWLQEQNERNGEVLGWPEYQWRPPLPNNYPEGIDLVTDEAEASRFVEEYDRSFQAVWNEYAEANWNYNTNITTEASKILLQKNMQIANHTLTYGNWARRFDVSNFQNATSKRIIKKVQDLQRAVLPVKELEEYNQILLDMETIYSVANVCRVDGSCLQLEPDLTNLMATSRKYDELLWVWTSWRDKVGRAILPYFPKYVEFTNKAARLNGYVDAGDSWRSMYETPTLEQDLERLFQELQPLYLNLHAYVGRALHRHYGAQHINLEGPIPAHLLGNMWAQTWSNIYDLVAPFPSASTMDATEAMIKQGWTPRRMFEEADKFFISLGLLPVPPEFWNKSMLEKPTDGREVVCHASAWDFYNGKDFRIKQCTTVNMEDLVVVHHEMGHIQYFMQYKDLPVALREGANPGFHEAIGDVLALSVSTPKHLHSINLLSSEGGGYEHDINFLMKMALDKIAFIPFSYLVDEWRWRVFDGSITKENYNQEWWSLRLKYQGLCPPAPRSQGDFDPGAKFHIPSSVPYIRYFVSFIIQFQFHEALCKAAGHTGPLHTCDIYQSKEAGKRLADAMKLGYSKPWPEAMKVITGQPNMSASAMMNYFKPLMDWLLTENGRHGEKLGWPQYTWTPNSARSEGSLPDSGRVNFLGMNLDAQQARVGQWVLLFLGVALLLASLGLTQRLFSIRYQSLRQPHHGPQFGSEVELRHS
Kind of data set: Kinetics study of ACE inhibition (Lineweaver-Burk / Michaelis-Menten, HHL 15 to 4000 µM). As to conditions: from plot of 1/Vmax against inhibitor concentration; read-out: Kiu (enzyme-inhibitor dissociation constant). In kind it is biochemical, rabbit. The procedure: To determine the mode of enzyme inhibition, Lineweaver-Burk plots of 1/v versus 1/[S] were used. ACE inhibition was determined in the presence of five concentrations of HHL from 15 to 4000 µM and four concentrations of peptides, as shown in Table 1.
Enzyme activity was expressed as nmol hippuric acid produced per min of enzymatic reaction. Kiu was calculated from the plot of 1/Vmax against inhibitor concentration at the intercept on the inhibitor concentration axis ([Cornish-Bowden, 2013]). Vmax and Km were calculated using GRAPHPAD PRISM 5 (GraphPad, Software Inc., San Diego, CA). Michaelis-Menten and Lineweaver-Burk plots were also created using the same software.

In data set [2] the target is T1, ACE. Kind of data set: Effect of ACE on papain-generated peptides: hydrolysis of peptides by ACE followed by RP-HPLC. In kind it is in vitro ADME, rabbit. The note with it: for degradation of the peptide by ACE (in words): after up to 3 h pre-incubation with ACE; for Peaks: number of RP-HPLC peaks; for percentage of peptide cleavage by ACE: over the whole incubation period (0.5 to 3 h); for metabolised at 1 h / metabolised at 2 h / metabolised at 3 h / metabolised at 0.5 h: rabbit, isolated ACE (angiotensin-converting enzyme) solution, read-out: Cleavage (%). The procedure: The effect of ACE on papain-generated peptides was analyzed following the method of [Yang et al. (2003)] with some modifications. Briefly, 225 µL of the peptide solution of YGIKVGYAIP,
GGIF, GIFE at concentrations of 2, 4, and 4 mM were separately incubated with 150 µL of ACE (100 mU/mL) at 37 °C. Samples were withdrawn at incubation times of 0, 0.5, 1, 2, and 3 h and kept on ice prior to analysis by HPLC. A 20-µl sample was loaded onto a Hypersil GOLD C18 column (4.6×250 mm) attached to a Shimadzu (Kyoto, Japan) LC 20AT apparatus. The column was conditioned with eluent A (0.1 % TFA in DI) and eluted with 100 % eluent A from 0 to 10 min. The peptides were eluted with eluent B (0.1 % TFA in CH3CN) with a gradient elution of 0–100 % for 10–50 min. The absorbance was read at 215 nm.
To evaluate the possible degrading effects of ACE on the bioactive peptides generated from palm kernel cake proteins prior to examining their inhibitory activity, the peptides were preincubated with ACE in a water bath shaker at 37 °C for 0.5 h, 1 h, 2 h and 3 h, and the resulting peptides were analyzed using RP-HPLC.

Data set [3] deals with T2, angiotensin-I-converting enzyme from rabbit lung (Oryctolagus cuniculus, UniProt P12822).
T2 construct: the angiotensin-I-converting enzyme from rabbit lung (2 units/mg protein); purchased Sigma Chemical Co. (St. Louis, MO, USA); host or cells: rabbit lung (tissue-derived)
T2 sequence (P12822 34-1310): T1 sequence (P12822 34-1310)
Kind of data set: ACE inhibitory activity evaluation (HHL substrate, hippuric acid read at 410 nm). As to conditions: for ACE inhibitory activity (%): Table 5; for ACE-inhibitory capacity (%) With pre-incubation: with pre-incubation with ACE (3 h); for ACE-inhibitory capacity (%) Without pre-incubation: without pre-incubation with ACE. In kind it is biochemical. On the procedure:
ACE inhibitory potency of peptides was determined following the method described by [Forghani et al. (2016)]. […] The mixture was incubated with Hippuryl-histidyl-leucine (HHL) solution (50 μL) containing 0.1 M borate buffer pH 8.3 and 0.3 M NaCl at 37 °C for 60 min. To terminate the enzymatic reaction, 75 μL of 1 M HCl was added to the mixture. Subsequently 150 μL of pyridine were layered followed by addition of 75 μL of benzenesulfonyl chloride, and the mixture was vortexed for 1 min before being cooled on ice. The absorbance was recorded at 410 nm using a micro plate reader (Labomed, model UVD-2950, USA Power Wave X 340, Biotek Instruments. Inc.,Winooski, VT, USA). The standard curve of hippuric acid (HA) was constructed by plotting absorbance versus _mol of HA produced in 1 mL of reaction volume.

Data set [4] addresses ACE. The note with it: literature peptides, read-out: Kiu, cited from earlier work.
Setting [5] is: incubation with ACE (100 mU/mL) 37 °C, 0.5 h, peptide 2 mM (YGIKVGYAIP), 4 mM (GGIF, GIFE).

We go through six compounds from paper PMC9789325, “Inhibition kinetics, molecular docking, and stability studies of the effect of papain-generated peptides from palm kernel cake proteins on angiotensin-converting enzyme (ACE)” (Food Chemistry: Molecular Sciences, 2022).

Entries after “also recorded” stand apart in the source; their conditions may differ. Where two headings read alike, the source gives them in different places. Residues, ends and D or L forms follow the SMILES beside them. No end group written: not given here.

What is called IC50 is the concentration that inhibits the measured activity by half. In the case of `CC[C@H](C)[C@H](NC(=O)CNC(=O)CN)C(=O)N[C@@H](Cc1ccccc1)C(=O)O` [GGIF] (H-GGIF-OH; N-terminus and C-terminus assumed), the Ki at ACE [1] is 1270 µM. Moreover, on ACE [2], the “degradation of the peptide by ACE (in words)” value (from here on “degradation of the peptide”) was “resistant to ACE; also recorded: resistant and were not degraded”; the “percentage of peptide cleavage by ACE” value is recorded as “approximately 1.5%”. At ACE [2] (incubation with ACE 37 °C, 1 h), the Peaks came to 1 and the metabolised at 1 h turned out to be 1 ± 0.2%. Besides, at ACE [2] (incubation with ACE 37 °C, 2 h), the Peaks amounted to 1 and the metabolised at 2 h was 1 ± 0.4%. At ACE [2] (incubation with ACE 37 °C, 3 h), the Peaks is listed as 1 and the metabolised at 3 h is 2 ± 0.6%. In addition, on ACE [2] (setting [5]), the Peaks is 1 and the metabolised at 0.5 h stood at 1 ± 0.1%. Further, in data set [3], the midpoint of inhibition, the IC50, lay at 92 µM; the “ACE inhibitory activity (%)” value is 97 ± 2.17%; the “ACE-inhibitory capacity (%) With pre-incubation” value is recorded as 87 ± 2.70%; the “ACE-inhibitory capacity (%) Without pre-incubation” value was found to be 97 ± 2.18%.

With `CC[C@H](C)[C@H](NC(=O)CN)C(=O)N[C@@H](Cc1ccccc1)C(=O)N[C@@H](CCC(=O)O)C(=O)O` [GIFE] (H-GIFE-OH; N-terminus and C-terminus assumed), on ACE [1], the Ki was found to be 18000 µM. In addition, at ACE [2], the “degradation of the peptide” value is “resistant; also recorded: resistant and were not degraded”; the “percentage of peptide cleavage by ACE” value is recorded as roughly 0%. On ACE [2] (incubation with ACE 37 °C, 1 h), the Peaks was determined as 1 and the metabolised at 1 h was 0%. On ACE [2] (incubation with ACE 37 °C, 2 h), the Peaks was determined as 1 and the metabolised at 2 h was determined as 0%. Besides, on ACE [2] (incubation with ACE 37 °C, 3 h), the Peaks was found to be 1 and the metabolised at 3 h stood at 0%. At ACE [2] (setting [5]), the Peaks is listed as 1 and the metabolised at 0.5 h stood at 0%. Also, in data set [3], the “ACE inhibitory activity (%)” value was 40 ± 1.00%, the “ACE-inhibitory capacity (%) With pre-incubation” value is 43 ± 1.80% and the “ACE-inhibitory capacity (%) Without pre-incubation” value turned out to be 40 ± 1.00%.

For RALP, the Ki at ACE [4] (ref He, Aluko & Ju (2014)) was 104 µM.

Consider WVYY, for which the Ki at ACE [4] (ref Girgih, He & Aluko (2014)) was 60 µM.

As for WYT, at ACE [4] (ref Girgih, He & Aluko (2014)), the Ki is 1830 µM.

In the case of YGIKVGYAIP [YGIKVGYAIP], the Ki at ACE [1] is 54 µM. Further, the “degradation of the peptide” value at ACE [2] was “degraded; also recorded: not resistant to ACE”. In addition, on ACE [2] (incubation with ACE 37 °C, 1 h), the Peaks is given as 5 and the metabolised at 1 h amounted to 84 ± 1.6%. For the same compound, on ACE [2] (incubation with ACE 37 °C, 2 h), the “Cleavage (%)” value is 95%, the Peaks is on record as 5 and the metabolised at 2 h turned out to be 95 ± 3.2%. Besides, at ACE [2] (setting [5]), the “Cleavage (%)” value was determined as 70%, the Peaks was found to be 5 and the metabolised at 0.5 h was 70 ± 2.2%. Moreover, the metabolised at 3 h at ACE [2] (incubation with ACE 37 °C, 3 h) was found to be 98 ± 3.1%. In addition, in data set [3], the IC50 is 1 µM, the “ACE inhibitory activity (%)” value was 100 ± 3.00%, the “ACE-inhibitory capacity (%) With pre-incubation” value is listed as 93 ± 2.40% and the “ACE-inhibitory capacity (%) Without pre-incubation” value turned out to be 100 ± 3.00%.
